Assay results as given in patent US20220184172A1, “AMPK/CASPASE-6 AXIS CONTROLS LIVER DAMAGE IN NONALCOHOLIC STEATOHEPATITIS” (The Regents of the University of California, priority 2019, published 2022).

Test system: CD-HFD-fed Flox and LAKO mice
Assay: A-769662 in CD-HFD-fed Flox and LAKO mice
Format: in vivo
Conditions: 25 mg/kg i.p. daily for 2 weeks
Procedure: FIGS. 13A-13I. A-769662 improves liver damage through AMPK activation in hepatocytes in NASH. C57BL/6J mice were fed with CD-HFD for 8 weeks. After 6 weeks of CD-HFD feeding, mice were intraperitoneally injected with 25 mg/kg A-769662 or vehicle daily for 2 weeks along with continuous CD-HFD feeding. FIG. 13A. Schematic diagram of experimental design. FIG. 13B-13C. Body weight (FIG. 13B) and liver weight (FIG. 13C) of indicated mice. n=7. FIG. 13D. Measurement of liver triglyceride (TG) of indicated mice. n=7. FIG. 13E. Quantification of the numbers of TUNEL-positive nuclei per field in liver sections shown in (FIG. 10B (W6), 10A). n=5-7 *, P<0.05, Student's unpaired t test. FIG. 13F-13H. Flox and LAKO mice were fed with CD-HPD for 8 weeks. After 6 weeks of CD-HFD feeding, mice were intraperitoneally injected with 25 mg/kg A-769662 or vehicle daily for 2 weeks along with continuous CD-HFD feeding. FIG. 13F. Paraffin-embedded liver sections of indicated mice were stained with TUNEL and DAPI as indicated therein; in the merged image sections, the different stains correspond to the grayscale shades as indicated in the single stained images to the left. Scale bar=50 μm. FIG. 13G. FIG. 13H. Serum ALT of indicated mice. n=4-5. *, P<0.05, two-way ANOVA. FIG. 13I. Expression of Adgre1 and Ccl2 in the liver of indicated mice. n=7. Data are shown as mean±SEM. *, P<0.05, Student's unpaired t test.
FIGS. 15A-15F. AMPK phosphorylates caspase-6 and inhibits its cleavage. FIG. 15A. Caspase-6 activity was measure in the lysates from isolated primary hepatocytes treated with vehicle or 250 μM BSA-conjugated palmitic acid (PA) or 50 ng/ml TNFα for 2 hrs. Data are shown as mean±SD. *, P<0.05, Student's unpaired t test. FIG. 15B. HepG2 cells were pretreated with 40 μM A-769662 for 1 hr, and then treated with 30 μg/ml cycloheximide (CHX) and 50 ng/ml TNFα for 2 hrs. Cell lysates were subject to immunoblot (IB) analysis. FIG. 15C. […] Quantification of IB analysis in FIG. 15D. n=3. *, P<0.05, two-way ANOVA. […] Quantification of IB analysis in FIG. 5K. n=3. […]

SMILES: N#Cc1c(O)c2c(-c3ccc(-c4ccccc4O)cc3)csc2[nH]c1=O [A-769662]
- procaspase-6 cleavage (liver lysates) (Flox mice): decreased
- procaspase-6 phosphorylation (liver lysates) (Flox mice): significantly increased
- number of apoptotic cells (TUNEL) (LAKO mice): did not decrease
